Experimental data: patent US20050158775A1, “Novel plamid DNA comprising reoprter gene DNA and use of the same” (priority 1997, published 2005)

Legend:
[1] = molecular target: T1, Gal4-human PPAR δ chimeric receptor protein (Homo sapiens, UniProt Q03181); assay type: cell-based
T1 construct: the 139th serine (Ser) to the 441st tyrosine (Tyr) of the human PPAR δ receptor; expressed in transfected cells
T1 sequence (Q03181 139-441): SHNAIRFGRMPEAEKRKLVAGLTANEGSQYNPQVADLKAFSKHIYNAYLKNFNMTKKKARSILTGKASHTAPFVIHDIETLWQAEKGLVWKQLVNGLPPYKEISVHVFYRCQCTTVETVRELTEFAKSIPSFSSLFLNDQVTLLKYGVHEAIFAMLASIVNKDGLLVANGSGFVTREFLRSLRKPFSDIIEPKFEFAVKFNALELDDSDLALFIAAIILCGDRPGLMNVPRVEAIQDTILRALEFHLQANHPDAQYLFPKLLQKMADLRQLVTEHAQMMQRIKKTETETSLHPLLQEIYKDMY

[2] = molecular target: T2, Gal4-human PPAR α chimeric receptor protein (Homo sapiens, UniProt Q07869); assay type: cell-based
T2 construct: the 167th serine (Ser) to the 468th tyrosine (Tyr) of the human PPAR α receptor; expressed in transfected cells
T2 sequence (Q07869 167-468): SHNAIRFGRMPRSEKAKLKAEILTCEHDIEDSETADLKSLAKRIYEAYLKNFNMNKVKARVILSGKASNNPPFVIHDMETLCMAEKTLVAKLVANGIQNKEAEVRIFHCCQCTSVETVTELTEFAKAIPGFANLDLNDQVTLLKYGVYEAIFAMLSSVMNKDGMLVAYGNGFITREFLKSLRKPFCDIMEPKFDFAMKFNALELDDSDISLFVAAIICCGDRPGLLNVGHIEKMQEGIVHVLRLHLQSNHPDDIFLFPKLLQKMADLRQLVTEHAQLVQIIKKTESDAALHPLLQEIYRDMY

[3] = molecular target: T3, Gal4-human PPAR γ chimeric receptor protein (Homo sapiens, UniProt P37231)
T3 sequence (P37231 176-477 isoform P37231-2): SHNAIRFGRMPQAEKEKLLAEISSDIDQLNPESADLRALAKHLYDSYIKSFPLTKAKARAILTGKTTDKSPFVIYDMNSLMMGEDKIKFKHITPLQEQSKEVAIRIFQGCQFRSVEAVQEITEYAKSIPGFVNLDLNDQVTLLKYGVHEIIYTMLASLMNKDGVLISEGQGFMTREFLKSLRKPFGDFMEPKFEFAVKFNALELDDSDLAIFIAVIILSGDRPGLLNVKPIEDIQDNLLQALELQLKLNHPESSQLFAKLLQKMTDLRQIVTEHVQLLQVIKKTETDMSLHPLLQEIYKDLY

Row | Structure (SMILES) | cell death of PPAR δ ligand-responsive cells [1] | cell death of PPAR α ligand-responsive cells [2] | cell death of PPAR γ ligand-responsive cells [3]
1 | CCCCCC#CCC#CCC#CCC#CCCCC(=O)O [ETYA] | do not cause cell death | cause dose-dependent cell death | 
2 | Cc1cccc(Nc2cc(Cl)nc(SCC(=O)O)n2)c1C [Wy-14643] |  | cause dose-dependent cell death | do not cause cell death
